Laboratory results published in publication PMC7002416, “Probiotic properties of a phytase producing Pediococcus acidilactici strain SMVDUDB2 isolated from traditional fermented cheese product, Kalarei” (Scientific Reports, 2020).

Test system: phytase (extracellular phytase from P. acidilactici SMVDUDB2)
Settings: 0.1-1.8 mM sodium phytate, 0.2 M sodium acetate pH 5.5

Km: 385 µM
Compound: O=P(O)(O)O[C@H]1[C@H](OP(=O)(O)O)[C@@H](OP(=O)(O)O)[C@H](OP(=O)(O)O)[C@@H](OP(=O)(O)O)[C@H]1OP(=O)(O)O [sodium phytate]
